Legend:
FGFR1(h) = FGFR1(h) (Homo sapiens, UniProt P11362); assay: Kinase assay, FGFR1(h); type: biochemical
Experimental: (§1) Kinase assay protocols well known to those of ordinary skill in the art were used. Specifically, the buffer composition was as follows: 20 mM MOPS, 1 mM EDTA, 0.01% Brij-35, 5% Glycerol, 0.1% β-mercaptoethanol, 1 mg/mL BSA. Test compounds were initially dissolved in DMSO at the desired concentration, then serially diluted to the kinase assay buffer. In a final reaction volume of 25 μL FGFR1(h) (5-10 mU) and KDR(h) (5-10 mU) are incubated with 8 mM MOPS pH 7.0, 0.2 mM EDTA, 200 μM LRRASLG (Kemptide), 10 mM magnesium acetate and [γ^33P-ATP]. The reaction was initiated by the addition of the MgATP mix. After incubation for 40 minutes at room temperature, the reaction was stopped by addition of 5 μL of a 3% phosphoric acid solution. Ten L of the reaction was then spotted onto a P30 filter mat and washed three times for 5 minutes in 50 mM phosphoric acid and once in methanol prior to drying and scintillation counting. Wells containing substrate but no kinase and wells containing a phosphopeptide control were used to set 0% and 100% phosphorylation value, respectively.
(§2) Of all of the steps in developing a drug, the hardest is finding promising compounds. (See, e.g., Malo et al., “Statistical practice in high-throughput screening data analysis,” Nature Biotechnology, 2006, 24, 167-75.) Kinase inhibitors often also have an anti-proliferative effect. […] The kinase inhibitory activity Compound 19 was tested using the kinase assay described in Example 3. […] These mutations in the tested kinases are thought to play an important role in transformation of some cancers.

KDR(h) = KDR(h) (Homo sapiens, UniProt P35968); assay: Kinase assay, KDR(h); type: biochemical
Experimental: as §1, §2

SNU16 = assay: Inhibition of proliferation (CellTiterblue, 72 hr), SNU16; type: cell-based; details: Homo sapiens, SNU-16, 72 h
Experimental: (§3) A number of studies were performed to analyze the consequences of tyrosine kinase inhibition in cell lines. To do this, 1000 cells are seeded in 27 μl/well in 384-well microplates, which are then placed in a humidified CO2 incubator at 37° C. overnight. The next day, 3 μl/well of 10× concentrated drug is added and the plates are returned to the incubator for 72 hr. After 72 hr incubation, plates are removed and 6 μl/well CellTiterblue (Promega) viability reagent is added. Plates are returned to the incubator for 3 hrs, after which fluorescence measurements are read on the Victor X3 plate reader (Perkin Elmer). Data are analyzed using Excel (Microsoft), and GI50 values are determined using Prism (Graphpad).

Kato III = assay: Inhibition of proliferation (CellTiterblue, 72 hr), Kato III; type: cell-based; details: Homo sapiens, KATO III, 72 h
Experimental: as §3

FGFR2(h) = FGFR2(h) (Homo sapiens, UniProt P21802); assay: Kinase assay, FGFR2(h); type: biochemical
FGFR2(N549H)(h) = FGFR2(N549H)(h) (Homo sapiens, UniProt P21802, N549H); assay: Kinase assay, FGFR2(N549H)(h); type: biochemical
FGFR3(h) = FGFR3(h) (Homo sapiens, UniProt P22607); assay: Kinase assay, FGFR3(h); type: biochemical
Lck(h) = Lck(h) (Homo sapiens, UniProt P06239); assay: Kinase assay, Lck(h); type: biochemical
cSRC(h) = cSRC(h) (Homo sapiens, UniProt P12931); assay: Kinase assay, cSRC(h); type: biochemical
AJK2(h) = AJK2(h) (Homo sapiens, UniProt O60674); assay: Kinase assay, AJK2(h); type: biochemical
MEK1(h) = MEK1(h) (Homo sapiens, UniProt Q02750); assay: Kinase assay, MEK1(h); type: biochemical
Ret(h) = Ret(h) (Homo sapiens, UniProt P07949); assay: Kinase assay, Ret(h); type: biochemical
Tie2(h) = Tie2(h) (Homo sapiens, UniProt Q02763); assay: Kinase assay, Tie2(h); type: biochemical
Parental BaF3 cells = assay: BaF3 cell model, Parental; type: cell-based; details: Mus musculus, read-out: IC5o(nM) Parental
Description: (§4) In FIG. 1 these kinases are from the fibroblast growth factor receptor class of kinases (FGFR1-FGFR4). Compound 19 kinase inhibitory activity FGFR1-FGFR4 are also depicted in Table 5.

FGFR1 = molecular target: T1, FGFR1 (Homo sapiens, UniProt P11362); assay: BaF3 cells engineered for expression of FGFR1; type: cell-based; details: read-out: IC5o(nM) FGFR1
T1 construct: expressed in transfected cells; host or cells: BaF3
Description: as §4

FGFR2 = molecular target: T2, FGFR2 (Homo sapiens, UniProt P21802); assay: BaF3 cells engineered for expression of FGFR2; type: cell-based; details: read-out: IC5o(nM) FGFR2
T2 construct: expressed in transfected cells; host or cells: BaF3
Description: as §4

[1] = Pharmacokinetic profile in rats; type: in vivo; details: Rat
Description: Compound 19's pharmacokinetic profile is consistent with Compound 19 being used as a therapeutic agent.

[2] = Metabolic stability, human liver microsomes; type: in vitro ADME
[3] = Cellular toxicity, HepG2 cell line; type: cell-based; details: human, HepG2 cells
Description: (§5) Table 9 discloses toxicity data for compound 19 from various toxicity tests well known to those of ordinary skill.

CYP450 1A2 = CYP450 1A2 (Homo sapiens, UniProt P05177); assay: CYP450 inhibition, 1A2; type: in vitro ADME
Description: as §5

CYP450 2C8 = CYP450 2C8 (Homo sapiens, UniProt P10632); assay: CYP450 inhibition, 2C8; type: in vitro ADME
Description: as §5

CYP450 2C9 = CYP450 2C9 (Homo sapiens, UniProt P11712); assay: CYP450 inhibition, 2C9; type: in vitro ADME
Description: as §5

Chain of KDR(h) (P35968 20-1356): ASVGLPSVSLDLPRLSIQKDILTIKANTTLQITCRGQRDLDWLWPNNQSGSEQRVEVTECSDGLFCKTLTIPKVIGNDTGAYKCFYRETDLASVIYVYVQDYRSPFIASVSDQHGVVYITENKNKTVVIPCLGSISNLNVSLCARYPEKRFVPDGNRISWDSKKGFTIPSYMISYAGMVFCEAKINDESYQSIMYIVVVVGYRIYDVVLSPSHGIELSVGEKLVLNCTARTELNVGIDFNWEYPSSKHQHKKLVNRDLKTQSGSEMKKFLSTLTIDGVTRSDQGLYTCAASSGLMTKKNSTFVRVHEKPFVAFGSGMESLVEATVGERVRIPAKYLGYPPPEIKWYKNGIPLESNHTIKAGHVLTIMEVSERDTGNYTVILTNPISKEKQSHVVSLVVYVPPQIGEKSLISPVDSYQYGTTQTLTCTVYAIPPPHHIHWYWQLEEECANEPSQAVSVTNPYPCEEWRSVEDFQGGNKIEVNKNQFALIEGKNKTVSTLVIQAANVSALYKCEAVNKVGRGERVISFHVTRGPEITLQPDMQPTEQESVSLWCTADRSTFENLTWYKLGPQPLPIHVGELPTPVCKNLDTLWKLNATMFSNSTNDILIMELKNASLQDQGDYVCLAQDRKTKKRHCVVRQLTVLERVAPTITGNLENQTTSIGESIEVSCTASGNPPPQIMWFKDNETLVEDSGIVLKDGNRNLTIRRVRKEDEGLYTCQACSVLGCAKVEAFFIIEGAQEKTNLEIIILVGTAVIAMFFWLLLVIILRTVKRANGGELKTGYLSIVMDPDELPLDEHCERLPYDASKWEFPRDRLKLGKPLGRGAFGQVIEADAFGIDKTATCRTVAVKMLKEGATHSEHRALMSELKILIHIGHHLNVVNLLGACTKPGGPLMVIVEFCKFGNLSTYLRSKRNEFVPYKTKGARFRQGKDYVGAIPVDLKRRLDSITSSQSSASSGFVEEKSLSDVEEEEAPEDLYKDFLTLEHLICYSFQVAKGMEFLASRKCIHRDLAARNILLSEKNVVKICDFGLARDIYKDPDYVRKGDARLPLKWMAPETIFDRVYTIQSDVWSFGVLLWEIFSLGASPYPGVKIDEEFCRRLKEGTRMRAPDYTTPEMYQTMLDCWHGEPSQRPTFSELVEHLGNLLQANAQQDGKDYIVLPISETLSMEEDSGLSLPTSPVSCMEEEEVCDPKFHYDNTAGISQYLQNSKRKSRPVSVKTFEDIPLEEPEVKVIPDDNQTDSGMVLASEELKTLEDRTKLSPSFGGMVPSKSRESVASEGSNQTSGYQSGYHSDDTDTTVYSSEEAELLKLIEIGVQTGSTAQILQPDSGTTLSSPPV
Chain of FGFR1(h) (P11362 22-822): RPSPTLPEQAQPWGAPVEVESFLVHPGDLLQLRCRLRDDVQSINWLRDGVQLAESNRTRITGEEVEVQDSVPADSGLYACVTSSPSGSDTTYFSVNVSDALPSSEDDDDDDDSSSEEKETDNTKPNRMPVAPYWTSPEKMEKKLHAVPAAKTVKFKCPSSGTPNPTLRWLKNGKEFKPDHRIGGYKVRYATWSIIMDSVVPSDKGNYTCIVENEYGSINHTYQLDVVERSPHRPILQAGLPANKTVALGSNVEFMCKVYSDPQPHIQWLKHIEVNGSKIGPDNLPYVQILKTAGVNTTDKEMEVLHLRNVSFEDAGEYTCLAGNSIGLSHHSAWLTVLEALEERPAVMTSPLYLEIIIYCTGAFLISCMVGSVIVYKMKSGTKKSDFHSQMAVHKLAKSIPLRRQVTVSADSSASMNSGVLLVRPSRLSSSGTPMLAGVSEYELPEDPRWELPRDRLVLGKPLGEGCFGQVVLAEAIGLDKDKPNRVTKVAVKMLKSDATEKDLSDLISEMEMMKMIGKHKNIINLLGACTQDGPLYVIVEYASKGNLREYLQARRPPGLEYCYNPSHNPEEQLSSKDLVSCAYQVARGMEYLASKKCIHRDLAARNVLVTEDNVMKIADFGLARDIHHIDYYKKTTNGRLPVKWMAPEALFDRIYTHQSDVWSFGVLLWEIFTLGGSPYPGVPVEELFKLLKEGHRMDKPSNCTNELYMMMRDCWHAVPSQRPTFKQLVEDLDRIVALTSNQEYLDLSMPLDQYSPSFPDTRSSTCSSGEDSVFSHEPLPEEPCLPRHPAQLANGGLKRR
Chain of Tie2(h) (Q02763 23-1124): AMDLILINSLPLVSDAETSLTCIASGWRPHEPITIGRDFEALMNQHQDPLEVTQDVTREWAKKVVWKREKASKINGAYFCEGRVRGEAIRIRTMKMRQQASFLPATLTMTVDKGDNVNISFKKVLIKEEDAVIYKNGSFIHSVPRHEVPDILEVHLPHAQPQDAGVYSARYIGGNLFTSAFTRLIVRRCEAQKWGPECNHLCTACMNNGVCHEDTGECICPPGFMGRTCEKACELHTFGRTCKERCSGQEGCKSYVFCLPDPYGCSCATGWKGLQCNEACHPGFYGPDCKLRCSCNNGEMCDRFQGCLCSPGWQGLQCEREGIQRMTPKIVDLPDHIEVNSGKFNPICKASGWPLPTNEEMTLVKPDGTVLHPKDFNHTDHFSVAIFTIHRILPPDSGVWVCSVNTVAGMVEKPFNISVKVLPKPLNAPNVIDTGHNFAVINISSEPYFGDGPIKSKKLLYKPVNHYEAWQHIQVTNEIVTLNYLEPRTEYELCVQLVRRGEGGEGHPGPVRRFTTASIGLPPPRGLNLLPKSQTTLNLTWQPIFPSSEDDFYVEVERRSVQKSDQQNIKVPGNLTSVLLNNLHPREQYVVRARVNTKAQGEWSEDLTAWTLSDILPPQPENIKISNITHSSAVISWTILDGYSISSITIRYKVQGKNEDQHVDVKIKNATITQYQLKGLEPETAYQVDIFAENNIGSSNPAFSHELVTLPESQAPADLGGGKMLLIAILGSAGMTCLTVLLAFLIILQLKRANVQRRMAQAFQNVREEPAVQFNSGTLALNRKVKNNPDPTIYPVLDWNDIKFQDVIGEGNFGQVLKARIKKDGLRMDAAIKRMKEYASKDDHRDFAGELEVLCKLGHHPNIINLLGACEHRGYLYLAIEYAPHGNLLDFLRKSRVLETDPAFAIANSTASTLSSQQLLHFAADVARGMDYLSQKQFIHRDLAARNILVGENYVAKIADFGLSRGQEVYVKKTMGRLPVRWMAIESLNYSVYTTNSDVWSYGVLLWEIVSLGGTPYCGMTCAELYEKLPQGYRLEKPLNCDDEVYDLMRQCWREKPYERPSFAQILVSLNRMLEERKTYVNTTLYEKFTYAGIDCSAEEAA
Chain of CYP450 2C8 (P10632 whole entry): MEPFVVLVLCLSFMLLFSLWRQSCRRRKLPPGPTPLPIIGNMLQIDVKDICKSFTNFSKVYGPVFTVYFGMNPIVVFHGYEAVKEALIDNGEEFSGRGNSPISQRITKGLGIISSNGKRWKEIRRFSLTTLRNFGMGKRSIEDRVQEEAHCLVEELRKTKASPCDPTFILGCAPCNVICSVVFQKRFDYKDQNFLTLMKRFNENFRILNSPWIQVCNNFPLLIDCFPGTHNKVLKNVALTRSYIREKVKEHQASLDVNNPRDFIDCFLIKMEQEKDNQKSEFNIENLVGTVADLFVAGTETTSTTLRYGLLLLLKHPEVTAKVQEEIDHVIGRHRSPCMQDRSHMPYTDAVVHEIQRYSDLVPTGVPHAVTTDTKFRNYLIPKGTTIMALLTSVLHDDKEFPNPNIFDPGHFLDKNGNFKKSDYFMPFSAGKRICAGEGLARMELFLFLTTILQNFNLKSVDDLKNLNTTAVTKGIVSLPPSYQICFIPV
Chain of Lck(h) (P06239 whole entry): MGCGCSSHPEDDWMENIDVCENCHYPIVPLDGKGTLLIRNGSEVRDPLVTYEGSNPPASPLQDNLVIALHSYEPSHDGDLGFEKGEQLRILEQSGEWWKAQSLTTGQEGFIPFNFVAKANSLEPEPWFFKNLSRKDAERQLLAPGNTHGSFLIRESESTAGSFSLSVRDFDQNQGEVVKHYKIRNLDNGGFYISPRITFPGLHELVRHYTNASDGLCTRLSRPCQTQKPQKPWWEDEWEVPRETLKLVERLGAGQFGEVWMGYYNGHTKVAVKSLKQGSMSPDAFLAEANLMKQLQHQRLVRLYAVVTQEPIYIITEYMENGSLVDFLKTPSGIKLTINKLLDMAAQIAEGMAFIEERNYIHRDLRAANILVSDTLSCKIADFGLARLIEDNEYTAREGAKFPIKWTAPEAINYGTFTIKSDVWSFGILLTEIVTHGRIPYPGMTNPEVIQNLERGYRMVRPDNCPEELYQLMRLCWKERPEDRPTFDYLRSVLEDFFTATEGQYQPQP
Chain of cSRC(h) (P12931 whole entry): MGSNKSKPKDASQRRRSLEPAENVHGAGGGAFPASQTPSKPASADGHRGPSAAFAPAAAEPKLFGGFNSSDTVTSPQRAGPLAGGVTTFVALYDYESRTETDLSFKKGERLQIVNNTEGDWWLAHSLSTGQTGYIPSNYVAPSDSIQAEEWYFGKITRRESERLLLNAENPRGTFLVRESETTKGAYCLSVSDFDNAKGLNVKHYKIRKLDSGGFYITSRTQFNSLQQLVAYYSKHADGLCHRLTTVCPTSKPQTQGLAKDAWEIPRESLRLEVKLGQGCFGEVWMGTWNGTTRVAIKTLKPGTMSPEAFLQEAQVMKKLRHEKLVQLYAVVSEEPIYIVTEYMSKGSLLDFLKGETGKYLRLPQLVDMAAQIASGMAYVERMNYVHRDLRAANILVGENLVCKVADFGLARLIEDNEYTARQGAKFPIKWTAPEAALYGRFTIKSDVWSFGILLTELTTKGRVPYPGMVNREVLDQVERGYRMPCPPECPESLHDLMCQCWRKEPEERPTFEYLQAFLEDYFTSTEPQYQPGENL
T1 sequence (P11362 22-822, species assumed): as the sequence (P11362 22-822) above

Cc1cc2c(F)c(Oc3ncnc(Nc4ccc(N5C[C@@H](C)N[C@@H](C)C5)cc4)c3C#N)cc(F)c2[nH]1 [Compound 19]
IC50 (FGFR1(h)): 0.0009 µM | inhibition at 1 µM (FGFR1(h); 1 μM): 100% | IC50 (KDR(h)): 0.485 µM | inhibition at 1 µM (KDR(h)): 86% | GI50 (SNU16): 0.012 µM | GI50 (Kato III): 0.079 µM | IC50 (FGFR2(h)): 0.011 µM | IC50 (FGFR2(N549H)(h)): 0.007 µM | IC50 (FGFR3(h)): 0.012 µM | IC50 (Lck(h)): > 1 µM | IC50 (cSRC(h)): > 1 µM | IC50 (AJK2(h)): > 1 µM | IC50 (MEK1(h)): > 1 µM | IC50 (Ret(h)): > 1 µM | IC50 (Tie2(h)): > 1 µM | IC50 (Parental BaF3 cells): 1890 nM | IC50 (FGFR1): 11.4 nM | IC50 (FGFR2): 17.6 nM | Oral Bioavailability (% F) ([1]; PO 5 mg/Kg): 76 % F | clearance ([1]; in vivo, IV 1 mg/Kg): 17.6 mL/min/kg | half-life ([1]; in vivo, IV 1 mg/Kg, read-out: Terminal Half Life (converted)): 6.81 h | Vd ([1]; in vivo, IV 1 mg/Kg, read-out: Vz): 9.54 L/kg | half-life [2]: > 1 h | CC50 [3]: 1.9 µM | IC50 (CYP450 1A2): 72 µM | IC50 (CYP450 2C8): 10.6 µM | IC50 (CYP450 2C9): 32.9 µM
